Where a SMILES comes first, the peptide text is derived from it.
Experiment: Maximum solubility of the small peptide
Format: physicochemical
Conditions: neutral pH

Structure (SMILES): CC[C@H](C)[C@H](NC(=O)[C@H](CC(C)C)NC(=O)[C@@H](N)CCCCN)C(=O)N[C@@H](CCSC)C(=O)N[C@H](C(=O)O)C(C)C [Lys-Leu-Ile-Met-Val] (H-KLIMV-OH)
- maximum solubility (4 °C): approximately 0.4 mg/mL
- maximum solubility (room temperature): approximately 0.7 mg/mL
